Results reported in patent US20020137209A1, “Methods of dissociating nongenotropic from genotropic activity of steroid receptors” (priority 2000, published 2002).
Ends that are not written are not given here.

What was measured:
ERβ [1] = molecular target: T1, ERβ (Homo sapiens, UniProt Q92731); experiment: ERE-luc transcription in HeLa cells transfected with ERβ; type: cell-based; parameters: expressed in transfected cells; host or cells: HeLa; settings: ERβ carrying HeLa cells, 10^−8 M E2
Excerpt: (§1) A. HeLa cells were transiently transfected with the ERα expression vector alone or together with a vector carrying a fusion of the α-II peptide with the GAL4 DNA binding domain driven by the SV40 promoter. In addition, cells were transfected with ERE-luc or IL-6-luc for the transcription studies; or with EGFP-nuc for the apoptosis experiments. […] B. HeLa cells were transfected with ERα or ERβ alone or together with expression vectors carrying 2X293 or 2XF6 peptides. […] C. HeLa cells were transfected with a vector carrying the GRIP peptide alone or together with ERα.
(§2) DNA constructs. […] Bio. […] The sequence for peptide αII is […] (SEQ ID NO.: 1). […] (SEQ ID NO.: 3). The sequence for GRIP is […] […] […] (SEQ ID NO.: 4). […] The forward primer contained the restriction site for SalI and the ERα Kozak sequence and the reverse primer contained the BamH1 restriction site. Amplified PCR products were subcloned into the SalI/BamH1 restriction site of pCMV.
(§3) Transient transfections. HeLa cells were plated at 5×10^4/cm^2 and after 16-24 hours were transfected with a total amount of 3 μg of DNA using Lipofectamine (Life Technologies Inc). Following a 4-6 hours of incubation, the transfection mix was replaced with fresh medium containing 10% charcoal-stripped serum and treatments were initiated.

ERβ [2] = molecular target: T1, ERβ; experiment: IL-6-luc transcription in HeLa cells transfected with ERβ; type: cell-based; parameters: expressed in transfected cells; host or cells: HeLa; settings: ERβ carrying HeLa cells, 10^−8 M E2
Excerpt: as §1, §2, §3

ERα = molecular target: T2, ERα (Homo sapiens, UniProt P03372); experiment: Etoposide-induced apoptosis in HeLa cells transfected with ERα; settings: peptide co-transfected, 10^−8 M E2
T2 sequence (P03372 1-595): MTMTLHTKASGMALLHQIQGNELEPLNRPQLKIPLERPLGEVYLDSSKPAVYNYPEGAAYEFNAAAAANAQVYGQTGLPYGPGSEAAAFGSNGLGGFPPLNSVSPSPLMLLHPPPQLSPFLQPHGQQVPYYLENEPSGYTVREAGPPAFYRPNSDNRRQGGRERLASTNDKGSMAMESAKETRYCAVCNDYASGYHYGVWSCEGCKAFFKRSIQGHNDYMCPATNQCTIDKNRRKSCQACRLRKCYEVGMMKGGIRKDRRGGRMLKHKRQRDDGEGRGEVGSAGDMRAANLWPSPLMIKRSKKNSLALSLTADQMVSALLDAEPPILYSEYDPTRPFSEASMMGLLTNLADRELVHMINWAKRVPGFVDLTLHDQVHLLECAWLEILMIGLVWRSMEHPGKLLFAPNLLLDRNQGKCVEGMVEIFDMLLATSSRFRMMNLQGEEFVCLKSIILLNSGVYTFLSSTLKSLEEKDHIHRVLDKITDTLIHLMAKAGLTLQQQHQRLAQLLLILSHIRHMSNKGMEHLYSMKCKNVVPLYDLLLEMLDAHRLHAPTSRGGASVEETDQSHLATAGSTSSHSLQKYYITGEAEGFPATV

ERβ [3] = molecular target: T1, ERβ; experiment: Etoposide-induced apoptosis in HeLa cells transfected with ERβ
[4] = system: osteocytic cell line MLO-Y4; experiment: Apoptosis of MLO-Y4 osteocytic cells (trypan blue); type: cell-based
ERK1/2 = experiment: ERK phosphorylation in MLO-Y4 cells (Western blot); type: cell-based; settings: for effect of inhibitor on induction of ERK phosphorylation by E2 or DHT: inhibitor 25 min, then 5 min E2 or DHT
Description: Western blot analysis. The phosphorylation status of ERK1/2 was analyzed by immunoblotting using a mouse monoclonal antibody recognizing tyrosine phosphorylated ERK1/2, or a rabbit polyclonal antibody recognizing total ERK1/2, followed by incubation with either an anti-mouse or an anti-rabbit antibody conjugated with horseradish peroxidase (Santa Cruz Biotechnology).

[5] = system: embryonic fibroblasts derived from Src−/− mice; experiment: Apoptosis in embryonic fibroblasts from Src−/− mice; type: cell-based; settings: ER- and AR-expressing, also lack yes and Fyn
Description: Cell lysates were obtained and proteins were analyzed by Western blot analysis using anti-ERK1/2 or anti-phospho-ERK1/2 (p-ERK1/2) antibodies. […] After 30 min, etoposide was added and apoptosis was assayed 6 hours later as in FIG. 1B. […] RT-PCR was performed as described in the experimental procedures. C-E. HeLa cells were transfected with Nuc-EGFP and with expression vectors encoding the full length ERα or its E domain, or the AR alone (C, left panel) or together with a dn MEK (C, right panel); a Src mutant lacking the kinase activity (Src K^−), a Src mutant lacking the SH2 domain (Src ΔSH2), or a Src mutant lacking the SH3 domain (Src ΔSH3) (D); or with ERα together with wt Shc, or the dn Shc mutants Y239F/Y240F/Y317F (Shc FFF), Y317F (Shc YYF) or Y239F/Y240F (Shc FFY) (E). Bars represent means±SD of triplicate determinations. *p<0.05 versus cells cultured without steroids, by ANOVA.
Quantification of apoptotic cells in vitro. Apoptotic cells were quantified either by trypan blue staining or by direct visualization of changes in nuclear morphology (in the case of transfected HeLa cells), as previously described (Plotkin,L. et al. (1999). J.
RT-PCR analysis of the ERs and AR in embryonic fibroblasts. […]

[6] = system: calvaria-derived murine osteoblastic cells; experiment: Apoptosis of calvaria-derived osteoblastic cells (trypan blue)
[7] = system: HeLa cells transfected with the vector without receptor (empty vector, ev); experiment: Etoposide-induced apoptosis in HeLa cells transfected with empty vector; settings: 10^−12M to 10^−8 M
AR = molecular target: T3, AR (Homo sapiens, UniProt P10275); experiment: Etoposide-induced apoptosis in HeLa cells transfected with AR
T3 sequence (P10275 1-920): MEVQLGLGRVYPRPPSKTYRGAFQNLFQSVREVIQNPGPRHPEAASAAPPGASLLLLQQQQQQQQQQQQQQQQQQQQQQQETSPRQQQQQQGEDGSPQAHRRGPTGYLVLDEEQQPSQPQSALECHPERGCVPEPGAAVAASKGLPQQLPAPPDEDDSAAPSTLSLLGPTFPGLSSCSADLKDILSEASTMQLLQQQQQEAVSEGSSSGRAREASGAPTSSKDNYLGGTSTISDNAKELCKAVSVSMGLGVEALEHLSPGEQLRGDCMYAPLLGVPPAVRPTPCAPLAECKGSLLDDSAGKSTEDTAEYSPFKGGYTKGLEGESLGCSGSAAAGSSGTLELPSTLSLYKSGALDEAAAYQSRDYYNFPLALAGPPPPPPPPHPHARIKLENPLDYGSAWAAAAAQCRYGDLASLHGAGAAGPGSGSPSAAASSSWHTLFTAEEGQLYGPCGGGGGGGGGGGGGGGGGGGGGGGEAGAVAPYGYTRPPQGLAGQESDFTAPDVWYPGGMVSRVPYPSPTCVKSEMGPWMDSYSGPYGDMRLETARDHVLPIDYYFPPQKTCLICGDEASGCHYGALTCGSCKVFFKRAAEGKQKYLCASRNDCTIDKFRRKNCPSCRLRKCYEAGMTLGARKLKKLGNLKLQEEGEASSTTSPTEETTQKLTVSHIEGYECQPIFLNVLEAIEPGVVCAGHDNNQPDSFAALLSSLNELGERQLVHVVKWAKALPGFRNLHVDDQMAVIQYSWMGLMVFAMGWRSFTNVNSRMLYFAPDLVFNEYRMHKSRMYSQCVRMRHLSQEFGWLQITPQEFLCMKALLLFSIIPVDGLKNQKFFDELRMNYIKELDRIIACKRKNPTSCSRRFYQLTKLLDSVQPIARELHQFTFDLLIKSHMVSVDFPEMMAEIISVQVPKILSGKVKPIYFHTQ

T1 sequence (Q92731 whole entry, species assumed, the tested form may be a part): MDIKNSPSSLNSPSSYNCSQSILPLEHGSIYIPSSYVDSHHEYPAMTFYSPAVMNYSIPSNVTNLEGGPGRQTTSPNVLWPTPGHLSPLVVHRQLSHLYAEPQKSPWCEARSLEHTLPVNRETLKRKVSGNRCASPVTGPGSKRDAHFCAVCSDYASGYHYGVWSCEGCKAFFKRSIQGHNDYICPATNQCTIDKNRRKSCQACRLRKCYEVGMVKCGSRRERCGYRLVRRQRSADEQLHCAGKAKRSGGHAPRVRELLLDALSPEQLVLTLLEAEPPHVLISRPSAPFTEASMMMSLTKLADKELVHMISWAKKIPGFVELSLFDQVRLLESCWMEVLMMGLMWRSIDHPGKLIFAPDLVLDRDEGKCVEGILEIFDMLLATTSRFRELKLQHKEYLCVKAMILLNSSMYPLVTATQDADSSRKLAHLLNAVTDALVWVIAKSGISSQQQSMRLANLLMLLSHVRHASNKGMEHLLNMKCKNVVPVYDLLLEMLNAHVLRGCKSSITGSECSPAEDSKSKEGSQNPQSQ

Molecule: 293: ERβ-specific peptide SSIKDFPNLISLLSR (SEQ ID NO.: 2); two copies expressed fused to GAL4 DNA binding domain (also: two copies fused to GAL4 DNA binding domain) [compound 293]
- effect of peptide on E2-induced ERE-Luc transcription (ERβ [1]): blocked
- effect of peptide on E2 effect on IL-6-Luc transcription (ERβ [2]): blocked
- effect of peptide on the anti-apoptotic activity of ERα (E2) (ERα): did not have an effect
- effect of peptide on the anti-apoptotic activity of ERβ (E2) (ERβ [3]; peptide co-transfected, 10^−8 M E2): did block

Molecule: C[C@]12CCC(=O)C[C@@H]1CC[C@@H]1[C@@H]2CC[C@]2(C)[C@@H](O)CC[C@@H]12 [DHT, 5β-dihydrotestosterone]
- prevention of apoptosis induced by etoposide, dexamethasone or TNFα ([4]; 10^−8 M steroid): prevented apoptosis
- dose-dependent inhibition of etoposide-induced apoptosis compared with calvaria cells ([4]; not shown): identical results
- time of maximal effect on phosphorylation of ERKs (ERK1/2; MLO-Y4 cells): 5 min
- anti-apoptotic effect in Src−/− fibroblasts (unlike Src+/+ wild type controls) [5]: unresponsive
- prevention of apoptosis induced by etoposide, dexamethasone or TNFα ([6]; 10^−8 M steroid): prevented apoptosis
- prevention of etoposide-induced apoptosis (ERβ [3]; HeLa transfected with ERβ): prevented apoptosis in a dose-dependent manner
- effect on etoposide-induced apoptosis [7]: Neither E2 nor DHT (10^−12M to 10^−8 M) had an effect

Molecule: C[C@]12CC[C@@H]3c4ccc(O)cc4C[C@@H](CCCCCCCCC[S+]([O-])CCCC(F)(F)C(F)(F)F)[C@H]3[C@@H]1CC[C@@H]2O (some centres unmarked) [ICI 182,780]
- effect of antagonist/inhibitor on the anti-apoptotic effect of E2 or DHT (AR): abrogated
- effect of antagonist on the anti-apoptotic effect of DHT ([6]; antagonist pre-treatment 30 min, 10^−8 M DHT, etoposide): blocked
- effect of antagonist on the anti-apoptotic effect of E2 ([6]; antagonist pre-treatment 30 min, 10^−8 M E2, etoposide): blocked

Molecule: Cc1ccc(-c2nn(C(C)(C)C)c3ncnc(N)c23)cc1 [PP1]
- effect of inhibitor on the anti-apoptotic effect of E2 and DHT ([4]; inhibitor 30 min prior to E2 or DHT, etoposide 6 hours): completely abrogated
- effect of inhibitor on induction of ERK phosphorylation by E2 or DHT (ERK1/2): blocked

Molecule: N#CC(=C(/N)Sc1ccccc1N)/C(C#N)=C(/N)Sc1ccccc1N [UO 126]
- effect of inhibitor on induction of ERK phosphorylation by E2 or DHT (ERK1/2): blocked
